In patent US8394641B2, “Method of hydrolyzing an enzymatic substrate” (Advanced Liquid Logic Inc., priority 2009, dated 2013):

Tests used:
[1] = 4-MU partitioning assay (forward and backward extraction) with cyclodextrins; format: physicochemical; settings: for aqueous containment of 4-MU: independent of pH
Experimental: The assay format includes forward transfer partitioning (forward extraction; FE) of 4-MU from an aqueous phase to an oil phase and backward transfer partitioning (backward extraction; BE) of 4-MU from an oil phase to an aqueous phase. The assay is performed in 96-well microtiter substrates; clear 96-well substrates (e.g., Costar 3631) for evaluation of forward transfer partitioning with bottom probe fluorescence detection and solid black 96-well substrates (e.g., Costar 3915) for evaluation of backward transfer partitioning with top probe fluorescence detection. A BioTek Synergy HT instrument with 3 mm top probe and 5 mm bottom probe, may, for example, be used for fluorescence measurements. In one example, parameters that may be varied in the assay for evaluation of cyclodextrins in aqueous containment of 4-MU include, but are not limited to, ionic strength of the aqueous phase solution, pH of the aqueous phase solution (e.g., pH 2 or pH 5), and the molar ratio of cyclodextrins to 4-MU.
An example of an assay format used for testing the effect of cyclodextrins on contamination through 4-MU partitioning includes, but is not limited to, the following steps: Pipette an aliquot (20 μL) of an aqueous phase solution (e.g., at pH 2, pH5 or pH 10.5) containing a surfactant, such as 0.01% Tween® 20 in a well of a 96-well clear microtiter plate. […] Measure the fluorescence of each well using a bottom probe at gains 40, 45, and 50. […] Remove the aluminum foil and measure the fluorescence of each well using a top probe at gains 50, 60, 70, and 80. […]
Each well of the second microtiter plate (i.e., a solid black microtiter plate) contains 50 μL of an aqueous solution (200 mM NaHCO3) at pH 10.5. […] For fluorescence calibration, an aqueous solution containing 4-MU (0, 0.01, 0.1, or 1 μM) was added to the corresponding “empty” wells of Table 5 and overlaid with a 50 μL aliquot of fresh oil.
FIGS. 17A and 17B show data tables 1700 and 1750, respectively, of fluorescence readings for forward transfer and backward transfer, respectively, of the 4-MU partitioning assay of Tables 5 and 6. […]

Krabbe assay = target: T1, Krabbe assay (Homo sapiens, UniProt P54803); assay: Krabbe assay on bench, substrate hydrolysis with cyclodextrins, QC DBS extracts; format: biochemical; settings: data not shown
T1 construct: DBS extracts were prepared from quality control (QC) dried blood spot samples; tissue CDC, Atlanta Ga; host or cells: dried blood spot extracts (pooled cord blood / leukoreduced red cells plus serum)
T1 sequence (P54803 43-685): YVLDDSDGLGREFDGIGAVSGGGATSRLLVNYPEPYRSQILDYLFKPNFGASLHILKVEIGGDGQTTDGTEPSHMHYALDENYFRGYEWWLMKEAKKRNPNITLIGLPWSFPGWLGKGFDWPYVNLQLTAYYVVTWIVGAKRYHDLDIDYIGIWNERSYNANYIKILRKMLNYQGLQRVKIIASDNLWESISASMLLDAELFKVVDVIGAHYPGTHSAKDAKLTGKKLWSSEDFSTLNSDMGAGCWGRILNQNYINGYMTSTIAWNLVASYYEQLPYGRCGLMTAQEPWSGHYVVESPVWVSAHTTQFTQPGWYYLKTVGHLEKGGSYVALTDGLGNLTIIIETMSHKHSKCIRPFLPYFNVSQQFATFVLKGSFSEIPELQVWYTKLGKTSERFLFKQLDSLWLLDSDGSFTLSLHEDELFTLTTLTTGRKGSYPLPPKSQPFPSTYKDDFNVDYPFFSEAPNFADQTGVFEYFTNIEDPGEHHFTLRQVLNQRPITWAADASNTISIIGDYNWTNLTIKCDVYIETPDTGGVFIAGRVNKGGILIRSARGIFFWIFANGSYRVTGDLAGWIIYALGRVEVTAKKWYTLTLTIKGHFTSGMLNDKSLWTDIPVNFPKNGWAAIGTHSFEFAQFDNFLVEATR
Experimental: To evaluate the efficacy of cyclodextrins in enhancing the hydrolysis of enzymatic substrates (4-MU substrates) used in NBS assays, DBS extracts were prepared from quality control (QC) dried blood spot samples (i.e., base pool (BP), low (L), medium (M) and high (H) activity samples). The QC samples were obtained from CDC, Atlanta Ga. The base pool (BP) QC sample was prepared from a pool of leukoreduced human red blood cells that was adjusted with serum to a hematocrit of 50%. The High (H) activity QC sample was prepared from pooled cord blood that was adjusted with serum to a hematocrit of 50%. The medium (M) activity QC sample was prepared by using 50% base pool (BP) and 50% high (H) activity sample. The low (L) activity QC sample was prepared by using 95% base pool (BP) and 5% high (H) activity sample. The BP sample is used as a control for hydrolysis non-specific to white blood cell lysosomal enzymes. The DBS extracts were analyzed using on-bench assay protocols for Fabry, Gaucher, Krabbe, and Pompe diseases. For each assay, on-chip reagent formulations were scaled up to bench volumes. Hydroxypropyl-β-cyclodextrin or methyl-β-cyclodextrin reagent stocks (300 mM) were prepared in appropriate assay buffers. […] Fluorescence was read at 360/460 nm at a gain of 75. For each assay, QC samples (BP, L, M and H) were analyzed in duplicate. […]

aqueous containment of 4-MU [1] | effect on substrate hydrolysis in a Krabbe assay (Krabbe assay) | contamination signal (back extraction) ([1]; molar ratio of Me-bCD to 4-MU 200:1, FIG. 16D) | Substance
effective | inhibitory |  | hydroxypropyl-β-cyclodextrin
effective | inhibitory | lowest contamination signal | methyl-β-cyclodextrin
